Test results published in ChEMBL document CHEMBL4346703, “Structure Overhaul Affords a Potent Purine PI3Kδ Inhibitor with Improved Tolerability” (J Med Chem, 2019).

Experiments:
[1] = Half-life in Wistar Han rat; format: ADME; details: in vivo
[2] = Unbound volume of distribution in Wistar Han rat; format: ADME; details: in vivo
[3] = Protein binding in Beagle dog plasma; format: ADME, cell-free, Canis lupus familiaris; details: read-out: PPB (converted)
[4] = fCmax in rat at 750 mg/kg/day; format: ADME, organism-based; details: in vivo
[5] = Plasma clearance in Wistar Han rat at 0.5 mg/kg, iv or 1 mg/kg, po; format: ADME, organism-based
[6] = fAUC in Beagle dog at 30 mg/kg; format: ADME, organism-based, Canis lupus familiaris; details: in vivo
[7] = fCmax in Beagle dog at 30 mg/kg; format: ADME, organism-based, Canis lupus familiaris; details: in vivo
[8] = biological target: Phosphodiesterase 3 (Homo sapiens, UniProt Q14432+Q13370); test: Inhibition of PDE3 (unknown origin); format: protein assay
[9] = Oral bioavailability in Beagle dog; format: ADME, organism-based, Canis lupus familiaris; details: in vivo
[10] = Toxicity in rat assessed as increase in heart rate at 750 mg/kg/day; format: organism-based; details: in vivo
[11] = Drug metabolism in dog microsomes assessed as N-dealkylation of pyrazole metabolite; format: ADME, Canis lupus familiaris, Microsome
[12] = biological target: Phosphodiesterase 4 (Homo sapiens, UniProt P27815+Q08499+Q07343+Q08493); test: Inhibition of PDE4 (unknown origin); format: protein assay
[13] = biological target: Phosphodiesterase 1 (Homo sapiens, UniProt P54750+Q01064+Q14123); test: Inhibition of PDE1 (unknown origin); format: protein assay
[14] = Stability in human microsomes in the presence of NADPH; format: ADME, Microsome
[15] = biological target: T1, Phosphatidylinositol 4,5-bisphosphate 3-kinase catalytic subunit delta isoform (Homo sapiens, UniProt O00329); test: Inhibition of PI3Kdelta in human Ramos cells assessed as reduction in anti-IgM-antibody-induced phosphorylation of AKT at Ser473 residue preincubated for 20 mins followed by anti-IgM antibody stimulation and measured after 30 mins by alphascreen assay; format: cell-based
T1 sequence (O00329 whole entry): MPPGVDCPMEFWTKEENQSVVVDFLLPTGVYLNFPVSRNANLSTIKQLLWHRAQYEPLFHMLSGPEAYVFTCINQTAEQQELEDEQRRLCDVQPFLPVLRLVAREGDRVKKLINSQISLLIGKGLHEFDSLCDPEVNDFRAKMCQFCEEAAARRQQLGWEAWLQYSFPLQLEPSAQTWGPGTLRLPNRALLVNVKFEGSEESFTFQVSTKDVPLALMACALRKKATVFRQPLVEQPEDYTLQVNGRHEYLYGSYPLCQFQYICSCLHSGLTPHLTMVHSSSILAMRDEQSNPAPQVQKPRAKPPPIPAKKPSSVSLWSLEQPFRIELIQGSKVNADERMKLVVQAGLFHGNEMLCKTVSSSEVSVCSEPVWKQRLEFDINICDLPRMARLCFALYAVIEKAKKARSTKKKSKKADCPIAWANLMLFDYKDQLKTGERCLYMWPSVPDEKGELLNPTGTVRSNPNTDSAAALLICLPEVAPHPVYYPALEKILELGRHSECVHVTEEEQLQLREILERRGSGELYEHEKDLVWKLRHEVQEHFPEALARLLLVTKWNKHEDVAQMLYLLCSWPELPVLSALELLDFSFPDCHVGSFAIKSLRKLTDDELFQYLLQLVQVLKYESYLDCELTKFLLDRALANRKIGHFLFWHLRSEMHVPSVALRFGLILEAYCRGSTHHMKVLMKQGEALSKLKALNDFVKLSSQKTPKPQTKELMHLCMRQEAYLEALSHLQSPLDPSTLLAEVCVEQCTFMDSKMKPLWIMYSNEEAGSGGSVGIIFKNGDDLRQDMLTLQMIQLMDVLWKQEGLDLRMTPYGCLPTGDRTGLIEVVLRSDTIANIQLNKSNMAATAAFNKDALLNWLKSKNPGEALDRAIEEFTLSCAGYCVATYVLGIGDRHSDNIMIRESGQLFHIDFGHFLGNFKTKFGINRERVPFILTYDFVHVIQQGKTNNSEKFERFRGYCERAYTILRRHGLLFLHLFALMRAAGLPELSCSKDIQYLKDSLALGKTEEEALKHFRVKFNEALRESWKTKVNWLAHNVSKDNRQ

[16] = Drug metabolism in dog microsomes assessed as oxidation of imidazopyridinone metabolite; format: ADME, Canis lupus familiaris, Microsome
[17] = Protein binding in Wistar Han rat plasma; format: ADME, cell-free; details: read-out: PPB (converted)
[18] = Oral bioavailability in Wistar Han rat; format: ADME, organism-based; details: in vivo
[19] = Volume of distribution in Wistar Han rat; format: ADME; details: in vivo
[20] = biological target: PI3-kinase p110-alpha/p85-alpha (Homo sapiens, UniProt P42336); test: Inhibition of N-terminal His6-tagged recombinant full length human p110alpha/untagged recombinant full length human p85alpha expressed in baculovirus infected Sf21 insect cells using PIP2 as substrate preincubated for 15 mins followed by substrate addition and measured after 1 hr by HTRF assay
PI3-kinase p110-alpha/p85-alpha, sequence (P27986 whole entry): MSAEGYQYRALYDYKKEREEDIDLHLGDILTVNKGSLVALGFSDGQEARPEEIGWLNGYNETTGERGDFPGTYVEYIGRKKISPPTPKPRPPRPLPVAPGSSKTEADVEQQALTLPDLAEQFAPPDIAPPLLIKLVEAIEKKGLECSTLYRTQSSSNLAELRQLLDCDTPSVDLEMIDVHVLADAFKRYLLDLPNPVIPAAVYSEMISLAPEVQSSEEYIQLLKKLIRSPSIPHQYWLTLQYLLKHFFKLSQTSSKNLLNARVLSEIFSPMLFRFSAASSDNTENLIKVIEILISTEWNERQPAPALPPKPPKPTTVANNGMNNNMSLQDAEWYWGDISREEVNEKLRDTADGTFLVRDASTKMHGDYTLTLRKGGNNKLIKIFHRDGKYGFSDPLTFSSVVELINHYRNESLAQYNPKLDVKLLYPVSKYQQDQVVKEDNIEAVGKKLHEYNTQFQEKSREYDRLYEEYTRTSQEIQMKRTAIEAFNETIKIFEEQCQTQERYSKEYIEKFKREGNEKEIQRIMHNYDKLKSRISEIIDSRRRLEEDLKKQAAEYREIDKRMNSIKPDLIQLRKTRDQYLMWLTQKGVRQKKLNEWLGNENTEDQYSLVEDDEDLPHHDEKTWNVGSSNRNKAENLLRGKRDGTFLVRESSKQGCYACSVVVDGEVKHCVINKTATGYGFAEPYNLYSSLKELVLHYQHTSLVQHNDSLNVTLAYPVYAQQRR
PI3-kinase p110-alpha/p85-alpha, sequence (P42336 whole entry): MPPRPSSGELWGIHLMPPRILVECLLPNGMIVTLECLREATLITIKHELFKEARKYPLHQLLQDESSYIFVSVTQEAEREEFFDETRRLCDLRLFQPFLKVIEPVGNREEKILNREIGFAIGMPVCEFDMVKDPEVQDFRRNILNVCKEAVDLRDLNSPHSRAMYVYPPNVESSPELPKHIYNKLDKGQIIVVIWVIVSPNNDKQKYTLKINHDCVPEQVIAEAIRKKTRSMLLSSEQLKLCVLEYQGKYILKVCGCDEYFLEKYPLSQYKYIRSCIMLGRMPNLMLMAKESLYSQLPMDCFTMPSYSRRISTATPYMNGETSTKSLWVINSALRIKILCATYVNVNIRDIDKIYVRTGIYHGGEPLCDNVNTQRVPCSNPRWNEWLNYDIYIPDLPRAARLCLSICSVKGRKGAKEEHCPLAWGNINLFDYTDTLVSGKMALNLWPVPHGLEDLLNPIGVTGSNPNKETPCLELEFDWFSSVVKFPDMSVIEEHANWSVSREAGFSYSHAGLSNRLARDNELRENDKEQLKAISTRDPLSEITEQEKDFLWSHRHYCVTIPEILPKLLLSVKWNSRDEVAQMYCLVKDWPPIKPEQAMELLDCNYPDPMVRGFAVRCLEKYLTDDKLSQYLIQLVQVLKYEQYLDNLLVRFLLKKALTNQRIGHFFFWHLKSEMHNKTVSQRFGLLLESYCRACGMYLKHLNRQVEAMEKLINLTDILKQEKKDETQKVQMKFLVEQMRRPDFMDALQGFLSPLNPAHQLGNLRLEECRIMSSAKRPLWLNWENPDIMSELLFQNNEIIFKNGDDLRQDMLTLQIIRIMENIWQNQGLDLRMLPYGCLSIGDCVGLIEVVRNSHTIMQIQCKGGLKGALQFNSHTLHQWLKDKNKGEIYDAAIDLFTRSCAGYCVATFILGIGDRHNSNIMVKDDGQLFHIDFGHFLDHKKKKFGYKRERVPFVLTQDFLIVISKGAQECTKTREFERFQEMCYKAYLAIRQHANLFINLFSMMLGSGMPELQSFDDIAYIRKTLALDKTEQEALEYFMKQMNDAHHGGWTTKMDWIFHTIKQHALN

[21] = Unbound volume of distribution in Beagle dog; format: ADME, Canis lupus familiaris; details: in vivo
[22] = Intrinsic clearance in Wistar Han rat at 0.5 mg/kg, iv or 1 mg/kg, po; format: ADME, organism-based; details: in vivo
[23] = fAUC in rat at 750 mg/kg/day; format: ADME, organism-based; details: in vivo
[24] = biological target: T2, Nuclear receptor subfamily 1 group I member 2 (Homo sapiens, UniProt O75469); test: Activation of PXR (unknown origin); format: ADME
T2 sequence (O75469 whole entry): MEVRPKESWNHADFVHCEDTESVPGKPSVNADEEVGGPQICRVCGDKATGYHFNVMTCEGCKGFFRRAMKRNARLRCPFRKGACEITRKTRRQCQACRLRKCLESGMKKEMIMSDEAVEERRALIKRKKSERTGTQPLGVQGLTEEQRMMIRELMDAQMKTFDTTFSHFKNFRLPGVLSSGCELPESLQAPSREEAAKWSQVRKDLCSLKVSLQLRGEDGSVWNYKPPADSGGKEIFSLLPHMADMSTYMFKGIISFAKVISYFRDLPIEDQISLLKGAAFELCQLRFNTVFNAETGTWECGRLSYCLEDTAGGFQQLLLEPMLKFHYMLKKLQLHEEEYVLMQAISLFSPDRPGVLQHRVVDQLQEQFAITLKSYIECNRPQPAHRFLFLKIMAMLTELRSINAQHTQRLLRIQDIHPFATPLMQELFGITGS

[25] = Toxicity in Beagle dogs assessed as medial necrosis of the arteries by measuring disruption of tunica media by fibrin at 30 mg/kg; format: organism-based, Canis lupus familiaris; details: dog, in vivo
[26] = Toxicity in rat assessed as increase in blood pressure at 750 mg/kg/day; format: organism-based; details: in vivo
[27] = biological target: cGMP-dependent 3',5'-cyclic phosphodiesterase (Homo sapiens, UniProt O00408); test: Inhibition of PDE2 (unknown origin)
cGMP-dependent 3',5'-cyclic phosphodiesterase, sequence (O00408 whole entry): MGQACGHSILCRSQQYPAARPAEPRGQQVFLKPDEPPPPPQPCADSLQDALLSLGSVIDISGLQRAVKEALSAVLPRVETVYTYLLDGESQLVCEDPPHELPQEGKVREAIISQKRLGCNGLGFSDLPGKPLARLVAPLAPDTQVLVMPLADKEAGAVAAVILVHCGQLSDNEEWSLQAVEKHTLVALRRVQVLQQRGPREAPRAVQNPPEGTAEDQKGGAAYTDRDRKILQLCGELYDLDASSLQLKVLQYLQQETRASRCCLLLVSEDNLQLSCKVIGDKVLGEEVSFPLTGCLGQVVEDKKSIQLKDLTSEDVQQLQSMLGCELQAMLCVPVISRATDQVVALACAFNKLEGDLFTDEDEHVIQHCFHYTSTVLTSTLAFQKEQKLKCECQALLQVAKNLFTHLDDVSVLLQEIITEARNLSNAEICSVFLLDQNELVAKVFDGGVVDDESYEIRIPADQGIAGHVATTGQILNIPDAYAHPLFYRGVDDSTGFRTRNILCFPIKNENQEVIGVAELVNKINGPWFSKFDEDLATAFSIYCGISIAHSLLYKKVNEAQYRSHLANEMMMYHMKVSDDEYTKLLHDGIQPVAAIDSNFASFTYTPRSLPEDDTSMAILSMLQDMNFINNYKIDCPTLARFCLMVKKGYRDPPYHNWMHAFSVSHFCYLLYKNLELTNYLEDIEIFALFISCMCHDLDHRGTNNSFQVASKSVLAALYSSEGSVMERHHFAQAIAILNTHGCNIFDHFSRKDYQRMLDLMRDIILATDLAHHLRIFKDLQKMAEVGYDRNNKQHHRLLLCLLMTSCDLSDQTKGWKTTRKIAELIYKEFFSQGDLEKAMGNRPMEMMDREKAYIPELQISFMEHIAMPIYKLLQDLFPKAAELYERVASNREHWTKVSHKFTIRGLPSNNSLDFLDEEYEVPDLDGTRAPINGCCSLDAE

[28] = Toxicity in Beagle dogs assessed as medial necrosis of the arteries by measuring disruption of tunica media by hemorrhage at 30 mg/kg; format: organism-based, Canis lupus familiaris; details: dog, in vivo
[29] = Protein binding in human plasma; format: ADME, cell-free; details: read-out: PPB (converted)
[30] = biological target: PI3-kinase p110-delta/p85-alpha (Homo sapiens, UniProt O00329); test: Inhibition of N-terminal His6-tagged recombinant full length human p110delta/untagged recombinant full length human p85alpha expressed in baculovirus infected Sf21 insect cells using PIP2 as substrate preincubated for 15 mins followed by substrate addition and measured after 1 hr by HTRF assay
PI3-kinase p110-delta/p85-alpha, sequence (P27986 whole entry, one chain of several, canonical isoform): as the sequence (P27986 whole entry) above

[31] = biological target: T1, Phosphatidylinositol 4,5-bisphosphate 3-kinase catalytic subunit delta isoform; test: Inhibition of PI3Kdelta in human whole blood assessed as reduction in anti-CD79b antibody-induced CD69 expression preincubated for 60 mins followed by anti-CD79b antibody stimulation and measured after 3 hrs by FACS analysis; format: tissue-based
[32] = Half-life in Beagle dog; format: ADME, Canis lupus familiaris; details: in vivo
[33] = biological target: cAMP and cAMP-inhibited cGMP 3',5'-cyclic phosphodiesterase 10A (Homo sapiens, UniProt Q9Y233); test: Inhibition of PDE10 (unknown origin)
cAMP and cAMP-inhibited cGMP 3',5'-cyclic phosphodiesterase 10A, sequence (Q9Y233 whole entry): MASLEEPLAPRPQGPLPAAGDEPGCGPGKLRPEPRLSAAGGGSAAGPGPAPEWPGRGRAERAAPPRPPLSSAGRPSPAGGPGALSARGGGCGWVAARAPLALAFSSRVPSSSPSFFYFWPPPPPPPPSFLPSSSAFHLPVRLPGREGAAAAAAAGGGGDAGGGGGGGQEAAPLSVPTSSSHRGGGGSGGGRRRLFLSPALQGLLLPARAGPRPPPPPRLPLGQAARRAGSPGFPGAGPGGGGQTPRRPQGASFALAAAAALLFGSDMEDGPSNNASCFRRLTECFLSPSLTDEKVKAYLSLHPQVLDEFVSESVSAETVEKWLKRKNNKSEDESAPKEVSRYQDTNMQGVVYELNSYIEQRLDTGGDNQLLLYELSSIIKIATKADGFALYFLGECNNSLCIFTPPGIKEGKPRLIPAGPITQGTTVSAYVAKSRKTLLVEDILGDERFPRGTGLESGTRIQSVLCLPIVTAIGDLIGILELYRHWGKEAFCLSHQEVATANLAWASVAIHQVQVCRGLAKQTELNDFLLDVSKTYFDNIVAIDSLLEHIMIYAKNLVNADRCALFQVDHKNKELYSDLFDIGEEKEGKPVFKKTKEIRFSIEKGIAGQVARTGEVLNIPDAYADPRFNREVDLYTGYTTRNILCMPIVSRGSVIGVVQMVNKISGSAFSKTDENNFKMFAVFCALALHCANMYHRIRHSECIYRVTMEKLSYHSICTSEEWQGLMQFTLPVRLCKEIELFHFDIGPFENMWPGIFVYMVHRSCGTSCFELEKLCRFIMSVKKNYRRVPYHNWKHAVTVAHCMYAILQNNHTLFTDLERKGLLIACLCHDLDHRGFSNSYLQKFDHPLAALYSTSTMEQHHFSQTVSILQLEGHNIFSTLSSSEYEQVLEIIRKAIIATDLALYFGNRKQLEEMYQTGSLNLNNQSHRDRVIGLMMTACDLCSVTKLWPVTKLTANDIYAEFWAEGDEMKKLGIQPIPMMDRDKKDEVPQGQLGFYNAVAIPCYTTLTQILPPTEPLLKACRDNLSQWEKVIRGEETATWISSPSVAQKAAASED

[34] = Inhibition of adenosine transporter in human HeLa cells assessed as reduction in [3H]adenosine uptake preincubated for 30 mins followed by [3H]adenosine addition and measured after 60 mins; format: ADME, cell-based
[35] = Volume of distribution in Beagle dog; format: ADME, Canis lupus familiaris; details: in vivo
[36] = biological target: T1, Phosphatidylinositol 4,5-bisphosphate 3-kinase catalytic subunit delta isoform; test: Inhibition of PI3Kdelta in human whole blood assessed as reduction in antihuman IgE antibody-stimulated CD63 expression preincubated for 30 mins followed by antihuman IgE antibody stimulation and measured after 20 mins by FACS analysis; format: tissue-based
[37] = Plasma clearance in Beagle dog at 0.25 mg/kg, iv or 0.5 mg/kg, po; format: ADME, organism-based, Canis lupus familiaris
[38] = Stability in rat microsomes in the presence of NADPH; format: ADME, Microsome
[39] = Toxicity in Beagle dogs assessed as medial necrosis of the arteries by measuring disruption of tunica media by cellular debris at 30 mg/kg; format: organism-based, Canis lupus familiaris; details: dog, in vivo
[40] = Lipophilicity, log D of the compound; format: physicochemical; details: octanol/water

- half-life [1]: 1.2 h
- Vdu [2]: 4 L/kg
- fraction unbound [3]: 0.05
- fCmax [4]: 8 µM
- clearance [5]: 5.8 mL/min/kg
- fAUC [6]: 4.4 µM·h
- fCmax [7]: 0.33 µM
- IC50 [8]: 1030 nM
- bioavailability [9]: 61%
- Drug metabolism [11]: Metabolite_Detected
- IC50 [12]: 1190 nM
- IC50 [13]: 2350 nM
- Stability [14]: Stable
- IC50 [15]: 63 nM
- Drug metabolism [16]: Metabolite_Detected
- fraction unbound [17]: 0.1
- bioavailability [18]: 76%
- Vd [19]: 0.4 L/kg
- IC50 [20]: 450 nM
- Vdu [21]: 90 L/kg
- CL [22]: 60 mL/min/kg
- fAUC [23]: 123 µM·h
- Activity [24]: Not Active
- IC50 [27]: 4900 nM
- fraction unbound [29]: 0.21
- IC50 [30]: 6.3 nM
- IC50 [31]: 810 nM
- half-life [32]: 1.1 h
- IC50 [33]: 4010 nM
- IC50 [34]: 72 nM
- Vd [35]: 4.6 L/kg
- IC50 [36]: 790 nM
- clearance [37]: 46 mL/min/kg
- Stability [38]: Stable
- logD [40]: 1.4
Compound: CCn1ncc(-c2nc3c(N4CCC(n5c(=O)[nH]c6ncccc65)CC4)ncnc3n2C)c1C
- Activity [10]: 100 bpm
- Activity [25]: Non-Toxic
- Activity [26]: 20 mmHg
- Activity [28]: Non-Toxic
- Activity [39]: Non-Toxic
